Reference: US20150038430A1, “THERAPEUTIC PEPTIDOMIMETIC MACROCYCLES” (AILERON Therapeutics, Inc., priority 2008, published 2015)
pEC50: −log10 of the molar value. Numbered stars: 1 amine (or outer) side, 2 acyl side, 3 side chain; on linkers, the order of the positions; unused ones are H or OH. Bridge positions count the residues as written; N and C are the ends. Square brackets hold non-standard residues; d marks the D form. Peptide text beside a SMILES is read from it. ξ: configuration not given here. ξαMeNle(6-ylidene) = CC(CCCC=[*:3])(N[*:1])C(=O)[*:2]; Nle = CCCC[C@H](N)C(=O)O

Tests used:
NCI-H146 = test: MTT cell viability assay, NCI-H146; assay type: cell-based, human; settings: 20 μM, MTT 48 hrs, FIG. 1
Protocol: (§1) Cell viability assays shown in FIGS. 1-32 were performed according to the following protocol. Tumor cell lines were grown in specific serum-supplemented media (growth media) as necessary. A day prior to the initiation of the study, cells were plated at optimal cell density (15,000 to 25,000 cells/well) in 200 μl growth media in microtiter plates. The next day, cells were washed twice in serum-free/phenol red-free RPMI complete media (assay buffer) and a final volume of 100 μl assay buffer was added to each well. Human peripheral blood lymphocytes (hPBLs) were isolated from Buffy coats (San Diego Blood Bank) using Ficoll-Paque gradient separation and plated on the day of the experiment at 25,000 cells/well.
(§2) Peptidomimetic macrocycles were diluted from 1 mM stocks (100% DMSO) in sterile water to prepare 400 μM working solutions. The peptidomimetic macrocycles and controls were then diluted 10 or […] or alternatively serially two-fold diluted in assay buffer in dosing plates to provide concentrations of either 40 and 20 μM or between 1.2 and 40 μM, respectively. […]
(§3) Towards the end of the 4 hour incubation time, 22 μl FBS was added to each well for a total concentration of 10% FBS. […] At the end of the incubation period, MTT assay was performed according to manufacturer's instructions (Sigma, catalog #M2128) and absorbance was measured at 560 nm using Dynex Opsys MR Plate reader. […]

Mcl-1 = test: Kd, μM | Mcl-1
Text: (§4) Table printed on a drawing sheet, Figure 27
Head of the field: Kd, μM | Mcl-1
(§5) First copying reader's note: The last row (ABT-737) is a small-molecule comparator; the three plots above the table are not copied.
Where the first naming reader finds the target: head: Kd, μM | Mcl-1

Bcl-2 = test: Kd, μM | Bcl-2
Text: as §4
Head of the field: Kd, μM | Bcl-2
as §5
Where the first naming reader finds the target: head: Kd, μM | Bcl-2

NCI-H128 = test: MTT cell viability assay, NCI-H128; assay type: cell-based, human; settings: 20 μM, MTT 48 hrs, FIG. 1
Protocol: as §1, §2, §3

U251 = test: MTT cell viability assay, U251; assay type: cell-based, human; settings: 20 μM, MTT 48 hrs, FIG. 1
Protocol: as §1, §2, §3

RS4;11 = assay type: cell-based, human; settings: 24 h
How it was run: (§6)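 Cells were seeded at 4000 per well in Opti-MEM, serum-free or with 2% human serum, and exposed to macrocycles at final 0.6–20 μM (serum-free) or 1.5–50 μM (2% serum) for 24 h at 37 °C. Viability was read by CellTiter-Glo luminescence as percent of DMSO-only control; EC50 derived, duplicates.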

OVCAR8 = assay type: cell-based, human; settings: 24 h
How it was run: as §6

Jurkat = assay type: cell-based, human; settings: 24 h
How it was run: as §6

MDA-MB231-Met = assay type: cell-based, human; settings: 24 h
How it was run: as §6

NCI-H82 (SCLC-MCL1+) = assay type: cell-based, human; settings: 24 h
How it was run: as §6

SEMK2 = assay type: cell-based, human; settings: 24 h
How it was run: as §6

DHL-6 = assay type: cell-based, human; settings: 24 h
How it was run: as §6

A375 = assay type: cell-based, human; settings: 24 h
How it was run: as §6

Molt-4 = assay type: cell-based, human; settings: 24 h
How it was run: as §6

MM1S = assay type: cell-based, human; settings: 24 h
How it was run: as §6

Raji = assay type: cell-based, human; settings: 24 h
How it was run: as §6

PC3 = assay type: cell-based, human; settings: 24 h
How it was run: as §6

CCCC[C@H](NC(=O)C1(C)CCCC=CCCCC(C)(NC(=O)[C@H](C)NC(=O)[C@H](CC(C)C)NC(=O)[C@H](Cc2c[nH]cn2)NC(=O)[C@H](CCCNC(=N)N)NC(=O)[C@H](C)NC(=O)[C@@H](NC(=O)[C@H](CC(N)=O)NC(=O)[C@H](CCCNC(=N)N)NC(=O)[C@@H](NC(=O)[C@@H](NC(=O)[C@H](CC(=O)O)NC(C)=O)[C@@H](C)CC)[C@@H](C)CC)[C@@H](C)CC)C(=O)N[C@@H](C(C)C)C(=O)NCC(=O)N[C@@H](CC(=O)O)C(=O)N1)C(=O)N[C@@H](CC(=O)O)C(=O)N[C@@H](CCCNC(=N)N)C(=O)N[C@@H](CO)C(=O)N[C@H](C(N)=O)[C@@H](C)CC (some centres unmarked) [SP-1] (Ac-DIIRNIARHLA[ξαMeNle(6-ylidene)]VGD[ξαMeNle(6-ylidene)][Nle]DRSI-NH2; staple 12-16)
apoptosis of NCI-H146 (SCLC) (NCI-H146): induced apoptosis | Kd (Mcl-1): < 0.1 µM | Kd (Bcl-2): 1 µM | apoptosis of NCI-H128 (SCLC) (NCI-H128): induced apoptosis | sensitivity of U251 (glioma) (U251): resistant | pEC50 (RS4;11): < 4.70 | pEC50 (OVCAR8): 4.70 | pEC50 (Jurkat): 5.60 | pEC50 (MDA-MB231-Met): 5.01 | pEC50 (NCI-H82 (SCLC-MCL1+)): 5.60 | pEC50 (SEMK2): 5.00 | pEC50 (DHL-6): 5.15 | pEC50 (A375): 4.96 | pEC50 (Molt-4): 5.37 | pEC50 (MM1S): 5.46 | pEC50 (Raji): 4.89 | pEC50 (PC3): 4.70
